# According to article PMC7768359, “Synthesis of Platinum(II) Complexes with Some 1-Methylnitropyrazoles and In Vitro Research on Their Cytotoxic Activity” (Pharmaceuticals, 2020):
# How the values were obtained:
# HL-60 cells [1] = assay: Cell cycle analysis (propidium iodide, flow cytometry); assay type: cell-based, human; conditions: 80 µM, 48 h
# Experimental: (§1) To establish how compounds 1 and 2 influence the cell cycle and cell death, the HL-60 human promyelocytic leukemia cell line was used. The results are outlined in the Figure 7 and Figure 8, respectively. […] This led to disturbances in the cell cycle progression, expressed as a significant decrease in G0/G1 and S phase, compared to the untreated control (Figure 7).
# Cultured HL-60 cells (human acute promyelocytic leukemia) were seeded at a density of 2 × 10^5 cells/mL of culture medium on 24-well plates (Corning, NY, USA) to a final volume of 2 mL. […] The stock solutions of platinum derivatives were prepared as described above.
# After 48 h of incubation, the cells were collected and washed in phosphate-buffered saline (PBS; HIIET, Wroclaw, Poland) supplemented with 2% of fetal bovine serum and counted in a hemocytometer. Then, the cells (1 × 10^6 per sample) were washed twice in cold PBS and fixed for 24 h in 70% ethanol at −20 °C. Following this, the cells were washed twice in PBS and incubated with RNAse (8 μg/mL, Fermentas GmbH, St. Leon-Rot, Germany) at 37 °C for 1 h. Finally, the cells were stained for 30 min with propidium iodide (0.5 mg/mL; Sigma-Aldrich, Steinheim, Germany) at 4 °C and the cellular DNA content was determined using a BD LSR Fortessa instrument (Becton Dickinson, San Jose, CA, USA) and WinMDI 2.8 software. The experiment was repeated at least three times.
# HL-60 cells [2] = assay: Determination of apoptosis by Annexin V / PI staining; assay type: cell-based, human; conditions: 48 h
# Experimental: as §1
# The HL-60 cells and compounds tested were prepared in the same way as for analysis of the cell cycle distribution. The cells were also exposed to camptothecin (2 µg/mL; Sigma-Aldrich, Steinheim, Germany) as a positive control of apoptosis induction. After 48 h of incubation, or in the case of camptothecin after 24 h, the cells were collected and washed in PBS (HIIET, Wroclaw, Poland) supplemented with 2% of fetal bovine serum and counted in a hemacytometer. The cells (2 × 10^5) were washed twice in PBS. Next, cells were suspended in 200 μL of the mixture of HEPES buffer: 10 mM HEPES, 150 mM NaCl, 5 mM KCl, 1 mM MgCl2, 1.8 mM CaCl2, (HIIET, Wroclaw, Poland) and Annexin V-FITC (Alexis Biochemicals, San Diego, CA, USA), each time freshly prepared according to the manufacturer’s recommendations. After 15 min of incubation in darkness at room temperature, propidium iodide (PI) solution (0.1 mg/mL) was added prior to analysis to give a final concentration of 10 µg/mL. […] Data were analyzed in a BD FACS Diva 6.2 program. […]
# [3] = Isomerization of complexes in solution; assay type: physicochemical; conditions: chloroform, acetone, DMSO, DMF
# Description: Additionally, it is worth adding that complexation with 1-methyl-3-nitropyrazole, was unsuccessful, probably because of the steric hindrance of both methyl and nitro groups that constrain access to free pair of electrons of pyrazole nitrogen. Besides, the electrostatic repelling of the approaching tetrachloroplatinate anion by electron dense oxygen atoms of the nitro group may also be an important factor that can hinder and/or prevent the formation of a complex. […] The reason is that both symmetric and antisymmetric valence vibrations of cis Pt(II)complexes are active, contrary to trans isomers in which case only antisymmetric vibration is active.
# A solution of 254 mg (2 mmol) of 1-methyl-5-nitropyrazole in 3 mL of acetone was mixed with a solution of 415 mg (1 mmol) of K2PtCl4 in 5 mL of water and maintained in darkness at 25 °C until the reaction completion (TLC, app. 3 days). […] Combustion and spectral analyses for the cis complex 3: Elemental analysis for formula C8H10N6O4Cl2Pt of compound 3: Calculated/Found (%): C 18.47/17.97, H 1.94/1.66, N 16.16/16.50, Cl 13.63/13.87. ^1H NMR (300.15 MHz, acetone-d6): δ[ppm] […] Combustion and spectral analyses for the trans complex 4: Elemental analysis for formula C8H10N6O4Cl2Pt of trans-complex 4: Calculated/Found (%): C 18.47/18.14, H 1.94/1.65, N 16.16/15.89, Cl 13.63/13.82. ^1H NMR (300.15 MHz, acetone-d6): δ[ppm] […]
smiles,measurement,setting,value
"Cn1cc([N+](=O)[O-])c[n+]1[Pt@SP2-2]([Cl])([Cl])[n+]1cc([N+](=O)[O-])cn1C [Compound 1, cis-dichloridobis(1-methyl-4-nitropyrazole)platinum(II)]",cell death (Sub-G1) and cell cycle progression of HL-60 cells,HL-60 cells [1],induced cell death (Sub-G1)
same,proapoptotic activity (Annexin V / propidium iodide),"HL-60 cells [2]; HL-60, 80 µM",statistically significant increase in early and late apoptotic cells
"Cn1c([N+](=O)[O-])cc[n+]1[Pt@SP3-2]([Cl])([Cl])[n+]1ccc([N+](=O)[O-])n1C [Compound 4, trans-dichloridobis(1-methyl-5-nitropyrazole)platinum(II)]",isomerization in solution,[3],"occurred slowly in chloroform or acetone solutions but much faster in more polar aprotic solvents (DMSO, DMF)"
"Cn1c([N+](=O)[O-])cc[n+]1[Pt@SP2-2]([Cl])([Cl])[n+]1ccc([N+](=O)[O-])n1C [Compound 3, cis-dichloridobis(1-methyl-5-nitropyrazole)platinum(II)]",isomerization in solution,[3],"occurred slowly in chloroform or acetone solutions but much faster in more polar aprotic solvents (DMSO, DMF)"
"Cn1cc([N+](=O)[O-])c[n+]1[Pt@SP3-2]([Cl])([Cl])[n+]1cc([N+](=O)[O-])cn1C [Compound 2, trans-dichloridobis(1-methyl-4-nitropyrazole)platinum(II)]",effect on the number of necrotic and late apoptotic HL-60 cells,HL-60 cells [2]; compared to 0.3 µM cisplatin and control,did not show any substantial effect
